Source: patent US4103011A, “Novel penicillin compounds and process for preparation thereof” (priority 1976, dated 1978)
Counter-ions that a name gives are not always drawn. Like-named read-outs stand apart in the source and are kept apart here.

Tests used:
Escherichia coli P-5101 [1] = assay: In vivo efficacy against systemic infection; set-up: species or system male mice (ddY); conditions: P5101, in Mus musculus, 168 h, twice, about 5 minutes and 6 hours after infection, read-out: ED50 (median effective dose)
How it was run: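 Male ddY mice of about 20g were infected intraperitoneally with E. coli P-5101 suspended in tryptosoy broth. Compounds dissolved in deionized water were given twice, about 5 minutes and 6 hours after infection. Effective dose was calculated by the Behrens-Kaerber method.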

[2] = Urinary excretion in mice; format: in vivo, male mice (ddY); conditions: for a: amount in urine: 4 mice, total body weight 101.8 g
Experimental: The contents of the vials (No. A) obtained in Example 17 were dissolved in deionized water to form solutions of penicillin compound 1 in a concentration of 25 mg/ml. The solutions were administered in a dose of 25 mg/kg (im) to four male mice (ddY) having an average body weight of 25 g. After given periods of time, the urine was collected from the four mice, and the concentration of the penicillin compound 1 in the urine was determined.
Urine was collected by using a metabolism cage for 3, 6, and 24 hours after administration. The pooled urine was diluted with a 0.067M phosphate buffer (pH 7.0) before assay to 500 times for the 0-3 hour urine, 100 times for the 3-6 hour urine and 10 times for the 6-24 hour urine.
The levels of compound 1 were determined by the thin-layer cup-plate method using Escherichia coli Kp as an indicator microorganism and a standard calibration line was prepared in a 0.067M phosphate buffer (pH 7.0).

in vivo = conditions: mouse
[3] = tested on: Staphylococcus aureus No. 50774; assay: In vitro antibacterial activity (MIC); format: cell-based; conditions: Staphylococcus aureus No. 50774; read-out: minimum inhibitory concentration (MIC)
Description: (§1) In vitro antibacterial activity against 20 strains of bacteria
(§2) The numerals in the table show minimum inhibitory concentrations (MIC)

[4] = tested on: Streptococcus faecalis P-2473; assay: In vitro antibacterial activity (MIC); format: cell-based; conditions: Enterococcus faecalis, P2473, read-out: minimum inhibitory concentration (MIC)
Description: as §1, §2

Proteus rettgeri P-2503 = assay: In vitro antibacterial activity (MIC); format: cell-based; conditions: Providencia rettgeri, P2503; Proteus rettgeri P-2503; read-out: minimum inhibitory concentration (MIC)
Description: as §1, §2

[5] = tested on: Pseudomonas aeruginosa No.12; assay: In vitro antibacterial activity (MIC); format: cell-based; conditions: Pseudomonas aeruginosa, NO.12, read-out: minimum inhibitory concentration (MIC)
Description: as §1, §2

[6] = tested on: Pseudomonas aeruginosa Tsuchijima; assay: In vitro antibacterial activity (MIC); format: cell-based; conditions: Pseudomonas aeruginosa Tsuchijima; read-out: minimum inhibitory concentration (MIC)
Description: as §1, §2

[7] = tested on: Staphylococcus aureus 209P JC-1; assay: In vitro antibacterial activity (MIC); format: cell-based; conditions: Staphylococcus aureus 209P JC-1; read-out: minimum inhibitory concentration (MIC)
Description: as §1, §2

[8] = tested on: Corynebacterium pyogenes C-21; assay: In vitro antibacterial activity (MIC); format: cell-based; conditions: Rhodococcus (subgen. Prescottella) equi, C21, read-out: minimum inhibitory concentration (MIC)
Description: as §1, §2

Proteus mirabilis P-2381 = assay: In vitro antibacterial activity (MIC); format: cell-based; conditions: Proteus mirabilis, P2381, read-out: minimum inhibitory concentration (MIC)
Description: as §1, §2

Shigella flexneri 2a = assay: In vitro antibacterial activity (MIC); format: cell-based; conditions: read-out: minimum inhibitory concentration (MIC)
Description: as §1, §2

Escherichia coli P-5101 [9] = assay: In vitro antibacterial activity (MIC); format: cell-based; conditions: P5101; Escherichia coli P-5101; read-out: minimum inhibitory concentration (MIC)
Description: as §1, §2

[10] = tested on: Shigella flexneri 4a P-330; assay: In vitro antibacterial activity (MIC); format: cell-based; conditions: 4AP330, read-out: minimum inhibitory concentration (MIC)
Description: as §1, §2

Proteus morganii Kono = assay: In vitro antibacterial activity (MIC); format: cell-based; conditions: Morganella morganii, read-out: minimum inhibitory concentration (MIC)
Description: as §1, §2

[11] = tested on: Streptococcus pyogenes 65A; assay: In vitro antibacterial activity (MIC); format: cell-based; conditions: Streptococcus pyogenes 65A; read-out: minimum inhibitory concentration (MIC)
Description: as §1, §2

[12] = tested on: Enterobacter cloacae P-2540; assay: In vitro antibacterial activity (MIC); format: cell-based; conditions: Enterobacter cloacae, P2540, read-out: minimum inhibitory concentration (MIC)
Description: as §1, §2

[13] = tested on: Salmonella typhimurium S-9; assay: In vitro antibacterial activity (MIC); format: cell-based; conditions: Salmonella enterica; Salmonella typhimurium S-9; read-out: minimum inhibitory concentration (MIC)
Description: as §1, §2

Escherichia coli P-140a = assay: In vitro antibacterial activity (MIC); format: cell-based
Description: as §1, §2

[14] = tested on: Escherichia coli NIHJ JC-2; assay: In vitro antibacterial activity (MIC); format: cell-based; conditions: Escherichia coli, NIHJJC2, read-out: minimum inhibitory concentration (MIC)
Description: as §1, §2

[15] = tested on: Serratia mercescens IFO 3736; assay: In vitro antibacterial activity (MIC); format: cell-based; conditions: IFO3736; Serratia mercescens IFO 3736; read-out: minimum inhibitory concentration (MIC)
Description: as §1, §2

[16] = tested on: Salmonella enteritidis No. 1891; assay: In vitro antibacterial activity (MIC); format: cell-based; conditions: Salmonella enterica; Salmonella enteritidis No. 1891; read-out: minimum inhibitory concentration (MIC)
Description: as §1, §2

[17] = tested on: Klebsiella pneumoniae No. 13; assay: In vitro antibacterial activity (MIC); format: cell-based; conditions: Klebsiella pneumoniae, NO.13, read-out: minimum inhibitory concentration (MIC)
Description: as §1, §2

Structure (SMILES): CC1(C)S[C@@H]2[C@H](NC(=O)[C@H](NC(=O)c3c[nH]c4nc(N5CCN(C=O)CC5)ncc4c3=O)c3ccc(O)cc3)C(=O)N2[C@H]1C(=O)O [Compound 1, D-α-[5,8-Dihydro-2-(4-formyl-1-piperazinyl)-5-oxopyrido[2,3-d]pyrimidine-6-carboxamido]-p-hydroxybenzyl-penicillin sodium salt]
- chemotherapeutic index relative to compounds B, D, E, F, G and J (times as high) (mice; Pseudomonas aeruginosa): 3 to 100 times
- LD50 relative to compounds A to G (times as high) (mice; mice): 2 to 10 times
- ED50 (Escherichia coli P-5101 [1]; iv): 2.9 mg/kg
- ED50 (Escherichia coli P-5101 [1]; sc): 3.7 mg/kg
- a: amount in urine ([2]; 25 mg/kg, im, single dose, 0-3 hour): 0.718 mg
- a: amount in urine ([2]; 25 mg/kg, im, single dose, 3-6 hour): 0.0480 mg
- a: amount in urine ([2]; 25 mg/kg, im, single dose, 6-24 hour): 0.0483 mg
- urinary level (in words) ([2]; after parenteral administration): higher than its MIC (μg/ml) values against various bacteria shown in Table I
- dose excreted at 3 h ([2]; mouse, urine, im, 25 mg/kg, im, single dose, 0-3 hour, read-out: cr: cumulative urinary recovery): 28.2%
- dose excreted at 3 h ([2]; mouse, urine, im, 25 mg/kg, im, single dose, 0-3 hour, read-out: r: urinary recovery): 28.2%
- dose excreted at 6 h ([2]; mouse, urine, im, 25 mg/kg, im, single dose, 3-6 hour, read-out: r: urinary recovery): 1.89%
- dose excreted at 24 h ([2]; mouse, urine, im, 25 mg/kg, im, single dose, 6-24 hour, read-out: r: urinary recovery): 1.9%
- dose excreted at 6 h ([2]; mouse, urine, im, 25 mg/kg, im, single dose, column 3-6 hour, read-out: cr: cumulative urinary recovery): 30%
- dose excreted at 24 h ([2]; mouse, urine, im, 25 mg/kg, im, single dose, column 6-24 hour, read-out: cr: cumulative urinary recovery): 31.9%
- concentration at 3 h ([2]; mouse, urine, 25 mg/kg, im, single dose, 0-3 hour, read-out: c: urinary concentration): 187000 ng/mL
- concentration at 6 h ([2]; mouse, urine, 25 mg/kg, im, single dose, 3-6 hour, read-out: c: urinary concentration): 21500 ng/mL
- concentration at 24 h ([2]; mouse, urine, 25 mg/kg, im, single dose, 6-24 hour, read-out: c: urinary concentration): 7250 ng/mL
- LD50 at 168 h (in vivo; iv): 4520 mg/kg
- selectivity ratio (in vivo; iv): 1100
- LD50 at 168 h (in vivo; sc): > 6000 mg/kg
- selectivity ratio (in vivo; sc): > 3000
- MIC [3]: 1.56 µg/mL
- MIC [4]: 3.13 µg/mL
- MIC (Proteus rettgeri P-2503): 25 µg/mL
- MIC [5]: 3.13 µg/mL
- MIC [6]: 0.78 µg/mL
- MIC [7]: 0.78 µg/mL
- MIC [8]: 3.13 µg/mL
- MIC (Proteus mirabilis P-2381): 3.13 µg/mL
- MIC (Shigella flexneri 2a): 3.13 µg/mL
- MIC (Escherichia coli P-5101 [9]): 1.56 µg/mL
- MIC [10]: 3.13 µg/mL
- MIC (Proteus morganii Kono): 6.25 µg/mL
- MIC [11]: 0.006 µg/mL
- MIC [12]: 6.25 µg/mL
- MIC [13]: 0.78 µg/mL
- minimum inhibitory concentration (MIC) (Escherichia coli P-140a): 12.5 µg/mL
- MIC [14]: 3.13 µg/mL
- MIC [15]: 6.25 µg/mL
- MIC [16]: 0.78 µg/mL
- MIC [17]: 12.5 µg/mL
